Results on 84 molecules are retold here after PubChem BioAssay AID1241 (SRMLSC, 2008).

The structures appear in SMILES notation. pEC50: −log10 of the molar value.

A short description of the test: compounds inducing NF-kB luciferase expression – cell-based, SH-SY5Y, dose response (AID 1241). The conditions noted are these: SH-SY5Y NF-kB promoter luciferase reporter, fold induction.
For orientation: pEC50 means the negative decadic logarithm of the EC50, by convention in mol/L. As to `Cc1c(C(=O)N2CCc3ccccc32)oc2ccccc12`, the pEC50 was 5.47.

Consider `COc1ccc2cc(-c3cc(C(=O)O)c4ccccc4n3)ccc2c1`, for which the negative-log EC50 (pEC50) is 5.94. Consider `CS(=O)(=O)N1N=C(c2ccc(Br)cc2)CC1c1ccc2c(c1)OCO2` (centres undefined), for which the pEC50 was 5.57. The result for `COc1cc(SC)ccc1C(=O)NCCOc1ccccc1Cl` reads 4.81; that for `O=C(Nc1nc2ccc(Cl)cc2s1)c1ccco1`, 5.92. With `O=C(CSc1cccc[n+]1[O-])c1cc(Cl)ccc1Cl`, the pEC50 is 5.71. Regarding `O=C(CSc1ncnc2ccccc12)c1ccco1`, the pEC50 was 5.38. In the case of `Cn1cccc1C(=O)C(=O)Nc1ccc(Cl)cc1`, the pEC50 is 4.60. The result for `C=CCNc1nc(-c2cc3ccccc3o2)cs1` reads 6.22. In the case of `c1ccc(-c2cnc(-c3ccccc3)nc2)cc1` it was 6.06; in that of `Fc1ccc(-c2cn3cc(C(F)(F)F)cc(Cl)c3n2)cc1`, 5.35. For the molecule `COc1ccc(C(=O)NCCSc2ccccc2)cc1`, the pEC50 is 6.02.

For `Cc1ccc(-c2nc3ccccc3[nH]2)s1`, the pEC50 is 5.22. In the case of `O/C(=C\c1ccc2ccccc2n1)c1ccc(O)cc1O` it was 6.02. Consider `O=c1c(-c2ccc3c(c2)OCCO3)coc2cc(O)cc(O)c12`, for which the pEC50 was 4.64. The result for `O=Cc1cn(-c2ccccc2)nc1-c1ccc2c(c1)OCCO2` reads 5.19. `O=C(N/N=C/C(Br)=C/c1ccccc1)c1n[nH]c2c1CCC2`: the pEC50 was 6.18.

With `Nc1ccccc1C(=O)OCCOc1ccccc1`, the pEC50 was 6.04. Take `CCOC(=O)c1sc(NC(=O)Nc2ccc(F)cc2)nc1C`: the pEC50 was 5.57.

As to `Clc1ccc(-c2nnc(SCc3ccon3)o2)c(Cl)c1`, the pEC50 is 5.97. The result for `CC(=Nc1ccccc1)c1sc2ccccc2c1O` reads 5.19; that for `COc1ccc(NC(=O)C2=Cc3ccccc3OC2)cc1`, 6.10. On to `N#C/C(=N\Nc1ccc(Cl)cc1)C(=N)N1CCCCC1`, for which the pEC50 is 5.76. The result for `Cc1ccc(C(=O)Nc2ccc(Cl)cn2)cc1` reads 4.76. `COc1cccc(/C=C/C(=O)c2ccc[nH]2)c1`: the pEC50 was 4.83.

On to `O=C(/C=C/Nc1cccc(O)c1)c1ccccc1`, for which the pEC50 is 5.68. In the case of `CCN(CC)c1ccc(C(=O)Nc2cccc(F)c2)cc1` it was 5.97; in that of `Cc1ccc(NCc2nc3ccccc3n2C)cc1`, 5.47; in that of `COc1ccc(-c2csc(Nc3ccccc3)n2)cc1`, 5.60.

For the molecule `Nc1ccc(-c2nc3ccc([N+](=O)[O-])cc3[nH]2)cc1`, the pEC50 was 5.78. The result for `Cc1ccc(NC(=O)c2noc3c2CCC3)cc1C` reads 5.51; that for `O=C(Nc1cccc(O)c1)c1noc2c1CCc1ccccc1-2`, 6.37.

In the case of `COc1cc(SC)ccc1C(=O)Nc1ccc(C)cc1`, the pEC50 is 5.52. In the case of `Cc1ccc(-c2cc(-c3cccc(F)c3)n[nH]2)c(O)c1`, the pEC50 was 5.36. Take `COc1ccc(C(=O)/C=C/c2cn(CN3CCN(C)CC3)c3ccccc23)cc1`: the negative logarithm of the EC50 (pEC50) is 5.99. In the case of `FC(F)(F)c1cc(Cl)c2nc(-c3ccccc3)cn2c1` it was 5.25; in that of `CCOc1ccc(-c2nc(-c3cccnc3)no2)cc1`, 6.04.

As to `CCC(C)c1ccc(NC(=O)c2cccs2)cc1` (centres undefined), the pEC50 is 6.13. In the case of `O=C(COc1ccccc1Cl)Nc1ccc(Cl)cn1` it was 4.81; in that of `c1ccc2sc(-c3ccc4c(c3)OCO4)nc2c1`, 6.06.

In the case of `O=C(Nc1ccc2c(c1)CCC2)c1cccs1`, the pEC50 is 5.19. The result for `Cc1ccsc1/C=N/Nc1nc2ccccc2s1` reads 6.10; that for `N/C(=N\OC(=O)COc1ccc(Br)cc1Cl)c1ccccn1`, 5.98; that for `COc1cccc(NC(=O)Nc2ccc3c(c2)nc(C)n3C)c1`, 5.03. The result for `O=C(OCC(=O)c1c[nH]c2ccccc12)c1cccc(O)c1` reads 4.84; that for `c1ccc(Nc2nc(-c3ccncc3)cs2)nc1`, 5.78; that for `Fc1ccccc1-c1nc(-c2ccccc2)no1`, 5.40. For the molecule `CC(=O)Nc1cccc(-c2csc(Nc3ccc(Cl)cn3)n2)c1`, the pEC50 is 5.66.

As for `O=C(/C=C/Nc1ccc(F)c(F)c1)c1cccs1`, the pEC50 is 6.02.

For `Cc1ccc(-c2nc(-c3ccccc3)no2)cc1`, the pEC50 was 6.03.

As for `COc1cccc(-c2cc(C(=O)Nc3cccc(O)c3)no2)c1`, the pEC50 is 6.30. The result for `O=C(/C=C/c1ccc(Cl)cc1Cl)Nc1cccc(S(=O)(=O)NC2=NCCC2)c1` reads 5.88; that for `O=C(Nc1nc2c(s1)CCCC2)c1cccs1`, 5.97.

For the molecule `COc1ccc(-c2csc(Nc3ncccc3C)n2)cc1`, the pEC50 is 5.78. As for `O=C(Nc1nccs1)c1ccc(-c2ccc(Cl)cc2)o1`, the pEC50 is 4.56. In the case of `CN(c1ccc(O)cc1)c1nc(-c2cccs2)cs1` it was 5.41.

Turning to `Cc1ccc(-c2nnc(SCc3ccccc3F)o2)cc1`, the negative-log EC50 (pEC50) was 5.33.

Turning to `Cc1ccc(S/C=C\C(=O)c2ccccc2)cc1`, the pEC50 is 5.71. `COc1ccc(-c2ccc3ccccc3n2)cc1`: the pEC50 was 6.19. On to `N#C/C(=C/c1ccco1)c1nc2ccccc2s1`, for which the pEC50 is 5.71. The result for `Cc1ccc(NC(=O)c2scc3c2CCCC3)cc1` reads 6.15. In the case of `c1ccc(Nc2nc(-c3cccs3)cs2)nc1` it was 6.18; in that of `Cc1ccc(C(=O)/C=C/Nc2ccccc2C(N)=O)cc1`, 6.29; in that of `Oc1ccccc1-c1cc(-c2ccccc2)no1`, 5.75. The result for `COc1ccc(-c2cc(=O)c3cc(O)ccc3o2)cc1` reads 5.16.

As to `C=CCNc1oc(/C=C/c2ccccc2)nc1C#N`, the pEC50 was 4.57. The result for `COc1ccc(-c2nnc(SCc3ccccc3F)o2)cc1` reads 5.41. The result for `CCCCc1ccc(-c2ccc(C)cc2O)nc1` reads 5.49. In the case of `COc1ccc2nc(NC(=O)Nc3ccccc3)sc2c1` it was 6.05. `Nc1nc2ccc(-c3nc4ccccc4o3)cc2s1`: the pEC50 was 5.86. The result for `CCCCc1ccc(-c2ccc(Br)cc2O)nc1` reads 5.47; that for `O=c1oc2ccccc2cc1-c1csc(Nc2ccc(O)cc2)n1`, 5.49. `O=C(Nc1ccc2ccccc2c1)c1onc2c1CCCC2`: the pEC50 is 6.20. In the case of `COCC(=O)Nc1nnc(-c2ccc(C(C)(C)C)cc2)s1` it was 4.96; in that of `O=C(Nc1ccccc1)c1ccc2ccccc2n1`, 5.24.

As to `CCCCCCOc1ccc(OC(=O)c2cccnc2)cc1`, the pEC50 is 6.72. The result for `COc1ccccc1N1CCN(Cc2ccc(O)c3ncccc23)CC1` reads 5.94; that for `O=C(c1ccccc1)c1cnc(Nc2ccccc2Cl)s1`, 5.10; that for `O=C(NCCSc1ccccc1)c1ccc(Br)cc1`, 5.87. With `O=C(/C=C/c1c[nH]c2ccccc12)c1ccccc1`, the pEC50 is 5.26. On to `Nc1ccc(-c2nc3ccc(C(=O)O)cc3s2)cc1`, for which the negative-log EC50 (pEC50) is 6.84. The result for `O=C(/C=C/c1ccc(Cl)cc1)Nc1nccs1` reads 6.10; that for `CC(C)CC(=O)Nc1ccc2nn(-c3ccccc3)nc2c1`, 5.24. On to `COc1ccc2nc3oc(C(=O)N4CCCCC4)cc3cc2c1`, for which the pEC50 was 5.28.
